Measurements reported in US12441768B2, “Compositions and methods for treating endometriosis” (EndoMet Biosciences, Inc., priority 2018, dated 2025).
Entries after “also recorded” stand apart in the source; their conditions may differ. Where a SMILES comes first, the peptide text is derived from it.

Experiments:
[1] = molecular target: T1, β-catenin and E-Cadherin interaction (Homo sapiens, UniProt P35222); assay: Competitive binding assay β-catenin / E-Cadherin-FC fusion; details: immobilized biotinylated β-catenin, 50 nM E-Cadherin-FC fusion, varying amounts of peptide
T1 sequence (P35222 1-781): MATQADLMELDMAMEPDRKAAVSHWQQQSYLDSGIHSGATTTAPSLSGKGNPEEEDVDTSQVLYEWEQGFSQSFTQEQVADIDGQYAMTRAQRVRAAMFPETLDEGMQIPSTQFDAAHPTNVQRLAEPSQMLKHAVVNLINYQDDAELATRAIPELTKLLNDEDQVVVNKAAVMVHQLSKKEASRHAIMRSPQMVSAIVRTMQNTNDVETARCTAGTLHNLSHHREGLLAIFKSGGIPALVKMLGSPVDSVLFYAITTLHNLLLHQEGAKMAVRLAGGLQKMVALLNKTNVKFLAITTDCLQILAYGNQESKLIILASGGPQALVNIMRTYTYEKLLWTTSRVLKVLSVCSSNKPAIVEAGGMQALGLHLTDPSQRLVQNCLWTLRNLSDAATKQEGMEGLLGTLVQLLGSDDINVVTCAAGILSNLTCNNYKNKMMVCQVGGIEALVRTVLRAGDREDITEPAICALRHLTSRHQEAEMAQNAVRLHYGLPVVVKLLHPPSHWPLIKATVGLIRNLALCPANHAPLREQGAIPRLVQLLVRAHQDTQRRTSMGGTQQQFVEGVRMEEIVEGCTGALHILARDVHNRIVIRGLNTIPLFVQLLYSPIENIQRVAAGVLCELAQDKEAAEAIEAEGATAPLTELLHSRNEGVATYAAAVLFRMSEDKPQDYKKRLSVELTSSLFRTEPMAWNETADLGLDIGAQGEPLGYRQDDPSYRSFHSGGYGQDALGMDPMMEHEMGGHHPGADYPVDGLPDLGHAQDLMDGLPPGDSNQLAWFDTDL
Procedure: Competitive binding assays were performed (FIG. 3) wherein biotinylated β-catenin was immobilized on streptavidin plates and 50 nM E-Cadherin-FC fusion was added in the presence of varying amounts of the peptide inhibitors (SEQ ID NO: 42).

WNT pathway genes = assay: Human WNT Signaling Pathway RT2 Profiler PCR Array in primary cells; assay type: cell-based; details: 48 h, compared with ICG001
Procedure: On-target activity of each peptide was assessed by the transcriptional activity of WNT pathway genes using Qiagen's Human WNT Signaling Pathway RT^2 Profiler PCR Array). Primary cells were administered the therapeutic peptide corresponding to SEQ ID NO: 42 for 48 h. RNA was extracted from the harvested cells and profiled on the array using rtPCR. The array contains 84 genes related to Wnt-mediated signal transduction, including ligands, receptors, downstream signaling molecules, and regulators of the Wnt canonical pathway, two non-canonical pathways, planar cell polarity, and a calcium ion-dependent pathway, 38 of which were assessed here. Positive control of ICG001, a known Wnt inhibitor, was also run on the RNA array to be used as a comparison.

Inhibition of the β-catenin and E-Cadherin interaction [1]: None of the doses tested inhibited
SMILES: CC[C@H](C)[C@H](NC(=O)[C@H](CC(C)C)NC(=O)[C@H](Cc1ccccc1)NC(=O)[C@H](Cc1c[nH]c2ccccc12)NC(=O)[C@@H](N)CCSC)C(=O)N[C@@H](CS)C(=O)N[C@@H](Cc1ccccc1)C(=O)N[C@@H](Cc1c[nH]c2ccccc12)C(=O)NCC(=O)O [SEQ ID NO: 42] (H-MWFLICFWG-OH)
Inhibition of gene transcripts within the Wnt pathway (WNT pathway genes): outperformed the known positive control; also recorded: potent and specific Wnt inhibitor
